Laboratory results taken from ChEMBL document CHEMBL5500406, “Discovery of Novel Proteolysis-Targeting Chimera Molecules as Degraders of Programmed Cell Death-Ligand 1 for Breast Cancer Therapy” (J Med Chem, 2024).
Activity calls are given as the source filed them. The calls are words filed in the database; no cut-off is given here.

What was measured:
4T1 = assay: Antitumor activity against mouse 4T1 cells assessed as decrease in cell viability incubated for 24 hrs by LDH assay; format: functional, cell-based
[1] = molecular target: T1, Protein cereblon/Programmed cell death 1 ligand 1 (Mus musculus) (UniProt Q9EP73+Q8C7D2); assay: PROTAC activity at CRBN/PD-L1 in mouse 4T1 cells at 0.156 to 5 uM incubated for 24 hrs by Western blot analysis; format: cell-based; settings: dose 0.156-5 µM
[2] = Cytotoxicity against BALB/c mouse PBMC cells at <=0.312 uM incubated for 48 hrs by MTT assay; format: toxicity, cell-based
[3] = molecular target: T1, Protein cereblon/Programmed cell death 1 ligand 1 (Mus musculus); assay: PROTAC activity at CRBN/PD-L1 in mouse 4T1 cells assessed as protein degradation at 1.25 to 20 uM incubated for 24 hrs by Western blot analysis; format: cell-based; settings: dose 1.25-20 µM

T1 sequence (Q8C7D2 whole entry partner): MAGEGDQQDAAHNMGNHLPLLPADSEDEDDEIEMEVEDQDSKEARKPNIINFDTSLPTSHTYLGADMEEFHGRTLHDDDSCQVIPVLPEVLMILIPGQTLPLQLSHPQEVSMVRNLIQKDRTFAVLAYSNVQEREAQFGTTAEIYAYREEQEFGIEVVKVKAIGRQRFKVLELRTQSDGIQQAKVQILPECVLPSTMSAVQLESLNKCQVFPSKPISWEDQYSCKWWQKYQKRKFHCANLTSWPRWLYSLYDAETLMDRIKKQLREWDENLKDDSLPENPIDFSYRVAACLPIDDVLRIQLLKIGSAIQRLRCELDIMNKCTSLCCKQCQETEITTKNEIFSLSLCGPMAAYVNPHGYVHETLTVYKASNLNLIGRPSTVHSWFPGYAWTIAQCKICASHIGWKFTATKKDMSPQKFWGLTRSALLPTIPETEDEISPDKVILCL
T1 sequence (Q9EP73 19-290 limits assumed): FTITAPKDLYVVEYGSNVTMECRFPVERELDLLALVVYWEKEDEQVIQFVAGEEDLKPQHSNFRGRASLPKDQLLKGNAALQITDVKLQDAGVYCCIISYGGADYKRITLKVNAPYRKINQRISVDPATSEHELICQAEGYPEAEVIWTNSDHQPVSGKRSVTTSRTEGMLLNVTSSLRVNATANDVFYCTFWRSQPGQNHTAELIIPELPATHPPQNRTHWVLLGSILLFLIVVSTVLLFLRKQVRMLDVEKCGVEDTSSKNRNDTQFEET

For `COc1nc(OCc2cccc(-c3ccccc3)c2C)ccc1CNCCNC(C)=O.Cl`, which Activity (4T1) is on record?
The Activity was “Active”.

And the Activity [1]?
The Activity was “inactive”.

What about the Activity [2] of the same compound?
Its Activity is “Non-Toxic”.

With `COc1nc(OCc2cccc(-c3ccccc3)c2C)ccc1CNCCNC(=O)CCCCCCCNC(=O)COc1ccc(C2CCC(=O)NC2=O)cc1` (stereo not given) as the compound, how does the Activity [3] read?
The Activity was “Active”.

Which Activity [3] does the source give for `COc1nc(OCc2cccc(-c3ccccc3)c2C)ccc1CNCCNC(=O)CCCCCCNC(=O)COc1ccc(C2CCC(=O)NC2=O)cc1` (stereo not given) here?
Its Activity is “Active”.
